Reference: patent US8377974B2 (Millennium Pharmaceuticals, Inc., priority 2004, dated 2013)

Each compound was assayed against T1, human plasma protein factor Xa (Homo sapiens, UniProt P00742) (assay: Factor Xa IC50 determination: cleavage of paranitroanilide substrate S-2765 in 96-well plates). Details: fXa 1 nM, S-2765 100 μM, Tris buffered saline pH 7.4, room temperature.
T1 construct: measure proteolytic activity of the enzyme (factor Xa); purchased Haematologic Technologies (Essex Junction, Vt.); host or cells: human plasma
T1 sequence (P00742 235-488 limits assumed): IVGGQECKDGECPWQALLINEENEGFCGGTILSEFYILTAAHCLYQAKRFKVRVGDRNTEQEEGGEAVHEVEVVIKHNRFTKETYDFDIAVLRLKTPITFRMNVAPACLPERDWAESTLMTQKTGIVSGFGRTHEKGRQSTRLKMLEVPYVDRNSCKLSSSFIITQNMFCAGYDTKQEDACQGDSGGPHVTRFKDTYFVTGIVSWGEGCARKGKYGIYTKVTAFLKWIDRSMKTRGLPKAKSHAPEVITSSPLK
T1 sequence (P00742 41-179 partner limits assumed): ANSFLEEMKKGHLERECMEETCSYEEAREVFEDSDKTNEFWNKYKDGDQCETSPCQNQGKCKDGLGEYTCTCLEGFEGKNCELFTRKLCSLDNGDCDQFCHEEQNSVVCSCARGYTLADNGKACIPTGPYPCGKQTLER
Type: biochemical
Method in brief: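 Human plasma factor Xa (1 nM) preincubated 5 min at room temperature with inhibitor (0.01 nM–10 μM final) in Tris-buffered saline pH 7.4 with 5 mM CaCl2, 0.1% BSA, 5% DMSO. S-2765 at 100 μM final; hydrolysis at 405 nm over 2 min. IC50 from 4-parameter fit of initial velocities.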

Structure (SMILES)	IC50 [nM]
CN(C)C(=N)c1ccc(-c2nc(CNC(=O)c3ccc(Cl)s3)co2)cc1 [Example 338, N-((2-(4-(N,N-Dimethylcarbamimidoyl)phenyl)oxazol-4-yl)methyl)-5-chlorothiophene-2-carboxamide]	≤ 100
O=C(NCc1cc(-c2ccc(Nc3ccncc3)cc2)no1)c1ccc(Cl)s1 [Example 254, 5-Chloro-thiophene-2-carboxylic acid {3-[4-(pyridin-4-ylamino)-phenyl]-isoxazol-5-ylmethyl}-amide]	≤ 100
O=C(NCc1cc(-c2ccc(-n3ccccc3=O)nc2)no1)c1ccc(Cl)s1 [Example 310, 5-Chloro-N-((3-(6-(2-oxopyridin-1(2H)-yl)pyridin-3-yl)isoxazol-5-yl)methyl)thiophene-2-carboxamide]	≤ 100
O=C(NCC1CC(c2cccc(-c3cccnc3)c2)=NO1)c1ccc(Cl)s1 (stereo not drawn) [Example 274, 5-Chloro-thiophene-2-carboxylic acid [3-(3-pyridin-3-yl-phenyl)-4,5-dihydro-isoxazol-5-ylmethyl]-amide]	≥ 500
CN1CCN=C1c1ccc(-c2cc(CNC(=O)c3ccc(Cl)s3)on2)c(Oc2ccccc2)c1 [Example 131, 5-Chloro-thiophene-2-carboxylic acid {3-[4-(1-methyl-4,5-dihydro-1H-imidazol-2-yl)-2-phenoxy-phenyl]-isoxazol-5-ylmethyl}-amide]	≤ 100
CCOC(=O)C1CCN(C(=N)c2ccc(-c3cc(CN(C)C(=O)c4ccc(Cl)s4)on3)cc2)CC1 [Example 39, 1-{[4-(5-{[(5-Chloro-thiophene-2-carbonyl)-methyl-amino]-methyl}-isoxazol-3-yl)-phenyl]-imino-methyl}-piperidine-4-carboxylic acid ethyl ester]	≥ 500
N=C(c1ccc(-c2cc(CNC(=O)c3ccc(Cl)s3)on2)c(F)c1)N1CCCCC1 [Example 72, 5-Chloro-thiophene-2-carboxylic acid {3-[2-fluoro-4-(imino-piperidin-1-yl-methyl)-phenyl]-isoxazol-5-ylmethyl}-amide]	≤ 100
N=C(c1ccc(-c2cc(CNC(=O)c3ccc(Cl)s3)on2)c(N2CCOCC2)c1)N1CCCC1 [Example 100, 5-Chloro-thiophene-2-carboxylic acid {3-[4-(imino-pyrrolidin-1-yl-methyl)-2-morpholin-4-yl-phenyl]-isoxazol-5-ylmethyl}-amide]	≤ 100
N=C(c1ccc(-n2cc(CNC(=O)c3ccc(Cl)s3)nn2)cc1)N1CCCCC1 [Example 319, 5-Chloro-N-((1-(4-(imino(piperidin-1-yl)methyl)phenyl)-1H-1,2,3-triazol-4-yl)methyl)thiophene-2-carboxamide]	≤ 100
O=C(NCC1CC(c2ccc(Cl)cc2)=NO1)c1ccc(Cl)s1 (stereo not drawn) [Example 153, 5-Chloro-thiophene-2-carboxylic acid [3-(4-chloro-phenyl)-4,5-dihydro-isoxazol-5-ylmethyl]-amide]	≥ 500
O=C(NCc1cc(-c2ccc(C(N3CCC3)=[N+]3CCC3)cc2)no1)c1ccc(Cl)s1 [Example 27, 5-Chloro-thiophene-2-carboxylic acid {3-[4-(azetidin-1-yl-azetidin-1-ylidene-methyl)-phenyl]-isoxazol-5-ylmethyl}-amide]	≤ 100
N=C(c1ccc(-n2cc(CNC(=O)c3ccc(Cl)s3)cn2)cc1)N1CCCCC1 [Example 329, 5-Chloro-N-((1-(4-(imino(piperidin-1-yl)methyl)phenyl)-1H-pyrazol-4-yl)methyl)thiophene-2-carboxamide]	≤ 100
O=C(NCC1CC(c2ccc(-n3cccc(Cl)c3=O)cc2)=NO1)c1ccc(Cl)s1 (stereo not drawn) [Example 283, 5-Chloro-N-((3-(4-(3-chloro-2-oxopyridin-1(2H)-yl)phenyl)-4,5-dihydroisoxazol-5-yl)methyl)thiophene-2-carboxamide]	≤ 100
CN1CCN=C1c1ccc(-c2noc(CNC(=O)c3ccc(Cl)s3)n2)cc1 [Example 335, 5-Chloro-N-((3-(4-(1-methyl-4,5-dihydro-1H-imidazol-2-yl)phenyl)-1,2,4-oxadiazol-5-yl)methyl)thiophene-2-carboxamide]	≤ 100
COCCN(C)C(=N)c1ccc(-c2cc(CNC(=O)c3ccc(Cl)s3)on2)cc1 [Example 32, 5-Chloro-thiophene-2-carboxylic acid (3-{4-[N-(2-methoxy-ethyl)-N-methyl-carbamimidoyl]-phenyl}-isoxazol-5-ylmethyl)-amide]	≤ 100
CN1CCN(c2cc(-n3ccccc3=O)ccc2-n2cc(CNC(=O)c3ccc(Cl)s3)nn2)CC1 [Example 308, 5-Chloro-N-((1-(2-(4-methylpiperazin-1-yl)-4-(2-oxopyridin-1(2H)-yl)phenyl)-1H-1,2,3-triazol-4-yl)methyl)thiophene-2-carboxamide]	≤ 100
O=C(NCC1CC(c2ccc(N3CCOCC3=O)cc2)=NO1)c1ccc(Cl)s1 (stereo not drawn) [Example 243, 5-Chloro-thiophene-2-carboxylic acid {3-[4-(3-oxo-morpholin-4-yl)-phenyl]-4,5-dihydro-isoxazol-5-ylmethyl}-amide]	≤ 100

Structure (SMILES)	IC50 [nM]
N=C(c1ccc(-c2csc(CNC(=O)c3ccc(Cl)s3)n2)cc1)N1CCCC1 [Example 362, 5-Chloro-N-((4-(4-(imino(pyrrolidin-1-yl)methyl)phenyl)thiazol-2-yl)methyl)thiophene-2-carboxamide]	≥ 500
CN1CCC(Nc2ccc(-c3cc(CNC(=O)c4ccc(Cl)s4)on3)cc2)CC1 [Example 259, 5-Chloro-thiophene-2-carboxylic acid {3-[4-(1-methyl-piperidin-4-ylamino)-phenyl]-isoxazol-5-ylmethyl}-amide]	≥ 500
N=C(c1ccc(-c2cccc(CNC(=O)c3ccc(Cl)s3)c2)cc1)N1CCCC1 [Example 382, 5-Chloro-N-((3-(4-(imino(pyrrolidin-1-yl)methyl)phenyl)phenyl)methyl)thiophene-2-carboxamide]	≤ 100
O=C(NCc1cc(C2CCN(Cc3ccccc3)CC2)no1)c1ccc(Cl)s1 [Example 178, 5-Chloro-thiophene-2-carboxylic acid [3-(1-benzyl-piperidin-4-yl)-isoxazol-5-ylmethyl]-amide]	≥ 500
CN(C)C(=N)c1ccc(-n2cc(CNC(=O)c3ccc(Cl)s3)nn2)cc1 [Example 313, N-((1-(4-(N,N-Dimethylcarbamimidoyl)phenyl)-1H-1,2,3-triazol-4-yl)methyl)-5-chlorothiophene-2-carboxamide]	≤ 100
COc1cccn(-c2ccc(-n3cc(CNC(=O)c4ccc(Cl)s4)nn3)cc2)c1=O [Example 294, 5-Chloro-N-((1-(4-(3-methoxy-2-oxopyridin-1(2H)-yl)phenyl)-1H-1,2,3-triazol-4-yl)methyl)thiophene-2-carboxamide]	≤ 100
N=C(c1ccc(-n2cnc(CNC(=O)c3ccc(Cl)s3)c2)cc1)N1CCCCC1 [Example 368, 5-Chloro-N-((1-(4-(imino(piperidin-1-yl)methyl)phenyl)-1H-imidazol-4-yl)methyl)thiophene-2-carboxamide]	≤ 100
CCN1CCC(C2=NOC(CNC(=O)c3ccc(Cl)s3)C2)CC1 (stereo not drawn) [Example 169, 5-Chloro-thiophene-2-carboxylic acid [3-(1-ethyl-piperidin-4-yl)-4,5-dihydro-isoxazol-5-ylmethyl]-amide]	≥ 500
CC1(CNC(=O)c2ccc(Cl)s2)CC(c2ccc(C(=N)N3CCC(C(N)=O)CC3)cc2)=NO1 (stereo not drawn) [Example 68, 1-{[4-(5-{[(5-Chloro-thiophene-2-carbonyl)-amino]-methyl}-5-methyl-4,5-dihydro-isoxazol-3-yl)-phenyl]-imino-methyl}-piperidine-4-carboxylic acid amide]	100 to 500
CN(C)Cc1ccccc1-c1ccc(-c2cc(CNC(=O)c3ccc(Cl)s3)on2)cc1 [Example 209, 5-Chloro-thiophene-2-carboxylic acid [3-(2′-dimethylaminomethyl-biphenyl-4-yl)-isoxazol-5-ylmethyl]-amide]	≤ 100
CN(C)C(=N)c1ccc(C2=NOC(C)(CNC(=O)c3ccc(Cl)s3)C2)cc1 (stereo not drawn) [Example 57, 5-Chloro-thiophene-2-carboxylic acid {3-[4-(N,N-dimethyl-carbamimidoyl)-phenyl]-5-methyl-4,5-dihydro-isoxazol-5-ylmethyl}-amide]	≤ 100
CC1(CNC(=O)c2ccc(Cl)s2)CC(c2ccc(C(=N)N3CCC3)cc2)=NO1 (stereo not drawn) [Example 62, 5-Chloro-thiophene-2-carboxylic acid {3-[4-(azetidin-1-yl-imino-methyl)-phenyl]-5-methyl-4,5-dihydro-isoxazol-5-ylmethyl}-amide]	≤ 100
CCOc1cc(C(=N)N(C)C)ccc1C1=NOC(CNC(=O)c2ccc(Cl)s2)C1 (stereo not drawn) [Example 106, 5-Chloro-thiophene-2-carboxylic acid {3-[4-(N,N-dimethyl-carbamimidoyl)-2-ethoxy-phenyl]-4,5-dihydro-isoxazol-5-ylmethyl}-amide]	≤ 100
CN(C)Cc1cccc(-c2cccc(C3=NOC(CNC(=O)c4ccc(Cl)s4)C3)c2)c1 (stereo not drawn) [Example 264, 5-Chloro-thiophene-2-carboxylic acid [3-(3′-dimethylaminomethyl-biphenyl-3-yl)-4,5-dihydro-isoxazol-5-ylmethyl]-amide]	≥ 500
CC(C)Oc1cc(C2=NCCN2C)ccc1-c1cc(CNC(=O)c2ccc(Cl)s2)on1 [Example 127, 5-Chloro-thiophene-2-carboxylic acid {3-[2-isopropoxy-4-(1-methyl-4,5-dihydro-1H-imidazol-2-yl)-phenyl]-isoxazol-5-ylmethyl}-amide]	≤ 100
CSc1cc(C(=N)N(C)C)ccc1-c1cc(CNC(=O)c2ccc(Cl)s2)on1 [Example 140, 5-Chloro-thiophene-2-carboxylic acid {3-[4-(N,N-dimethyl-carbamimidoyl)-2-methylsulfanyl-phenyl]-isoxazol-5-ylmethyl}-amide]	≤ 100
